Measured values from BindingDB's records for doi:10.1021/jm030121k (Boehringer Ingelheim Pharmaceuticals, 2003).

Molecular target: Mitogen-activated protein kinase 14 (Mus musculus, UniProt P47811)
Test: UV-Thermal Melt
Experimental: UV thermal melt experiments were carried out in a quartz cuvette loaded with sample containing enzyme and each test compound using a spectrophotometer. For each measurement, absorbance data at 230 nm was collected as the temperature was scanned from 25 to 80 C at a ramp rate of 0.2 C /min. The melting temperature (Tm) for each sample was calculated as the maximum deflection point of the first derivative of the melting transition.

Chain of Mitogen-activated protein kinase 14 (P47811 whole entry): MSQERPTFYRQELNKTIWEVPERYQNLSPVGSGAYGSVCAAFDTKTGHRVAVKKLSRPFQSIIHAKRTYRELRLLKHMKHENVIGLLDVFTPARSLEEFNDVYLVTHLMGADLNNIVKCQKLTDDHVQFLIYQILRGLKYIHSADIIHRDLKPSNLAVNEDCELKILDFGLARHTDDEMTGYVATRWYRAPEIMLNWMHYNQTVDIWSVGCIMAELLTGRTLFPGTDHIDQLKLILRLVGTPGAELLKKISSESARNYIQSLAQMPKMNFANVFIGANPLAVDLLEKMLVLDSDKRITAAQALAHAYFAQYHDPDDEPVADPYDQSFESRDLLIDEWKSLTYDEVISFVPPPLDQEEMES

Kd: 11 nM
Compound: Cc1ccc(-n2nc(C(C)(C)C)cc2NC(=O)Nc2cccc3ccccc23)cc1 [BIRB-796 Analog 4]
